Reference: ChEMBL document CHEMBL1201862, “PubChem BioAssay data set” (2004)
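Method: 48-hour compound exposure of cells in 96-well plates, five concentrations, linear interpolation of endpoints. GI50: concentration for 50% inhibition of growth.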 The source made the active and inactive calls. Rule as the data show it: active = GI50 up to about 1.1 µM and inactive = higher.

Legend:
Experiment in all cases: growth of human tumour cells (NCI), 48 h
UO-31 = test system: UO-31
SN12C = test system: SN12C
SF-539 = test system: SF-539
Malme-3M = test system: Malme-3M
LXFL 529 = test system: LXFL 529
TK-10 = test system: TK-10
SK-MEL-28 = test system: SK-MEL-28
M19-MEL = test system: M19-MEL
HOP-92 = test system: HOP-92
IGROV-1 = test system: IGROV-1
HCT-15 = test system: HCT-15
OVCAR-8 = test system: OVCAR-8
OVCAR-3 = test system: OVCAR-3
KM-20L2 = test system: KM-20L2
SR = test system: SR
MOLT-4 = test system: MOLT-4
SNB-19 = test system: SNB-19
CCRF-CEM = test system: CCRF-CEM
HL-60 = test system: HL-60
SNB-75 = test system: SNB-75
M14 = test system: M14
HOP-18 = test system: HOP-18
RPMI-8226 = test system: RPMI-8226
SW-620 = test system: SW-620
SF-295 = test system: SF-295
OVCAR-4 = test system: OVCAR-4
U-251 = test system: U-251
SK-MEL-5 = test system: SK-MEL-5
DMS-114 = test system: DMS-114
XF498 = test system: XF498
HCC 2998 = test system: HCC 2998
NCI-H23 = test system: NCI-H23
RXF 631 = test system: RXF 631
HT-29 = test system: HT-29
KM12 = test system: KM12
SK-MEL-2 = test system: SK-MEL-2
ACHN = test system: ACHN
COLO 205 = test system: COLO 205
SF-268 = test system: SF-268
CAKI-1 = test system: CAKI-1
LOX IMVI = test system: LOX IMVI
DMS-273 = test system: DMS-273
HCT-116 = test system: HCT-116
NCI-H226 = test system: NCI-H226
NCI-H460 = test system: NCI-H460
SNB-78 = test system: SNB-78
K562 = test system: K562
UACC-62 = test system: UACC-62
EKVX = test system: EKVX
A498 = test system: A498
NCI-H522 = test system: NCI-H522
HOP-62 = test system: HOP-62
A549 = test system: A549
DLD-1 = test system: DLD-1
OVCAR-5 = test system: OVCAR-5
SK-OV-3 = test system: SK-OV-3
RXF 393 = test system: RXF 393
UACC-257 = test system: UACC-257
786-0 = test system: 786-0

In the case of `CCOC(=O)C(=O)Nc1c(CC)cccc1C(C)CC` (stereo unspecified), the GI50 (UO-31) is reported as > 100 µM (inactive), the GI50 (SN12C) is reported as > 100 µM (inactive) and the GI50 (SF-539) is reported as > 100 µM (inactive). For the same molecule, the GI50 (Malme-3M) was > 100 µM (inactive), the GI50 (LXFL 529) was > 100 µM (inactive) and the GI50 (TK-10) was > 100 µM (inactive). The GI50 (SK-MEL-28) was > 100 µM (inactive), the GI50 (M19-MEL) was > 100 µM (inactive) and the GI50 (HOP-92) was > 100 µM (inactive). For the same molecule, the GI50 (IGROV-1) was > 100 µM (inactive), the GI50 (HCT-15) was over 100 µM and the GI50 (OVCAR-8) was > 100 µM (inactive). For the same molecule, the GI50 (OVCAR-3) was > 100 µM (inactive), the GI50 (KM-20L2) was > 100 µM (inactive) and the GI50 (SR) was > 100 µM (inactive). The GI50 (MOLT-4) was > 100 µM (inactive), the GI50 (SNB-19) was > 100 µM (inactive) and the GI50 (CCRF-CEM) was > 100 µM (inactive). The GI50 (HL-60) was > 100 µM (inactive), the GI50 (SNB-75) was > 100 µM (inactive) and the GI50 (M14) was > 100 µM (inactive). The GI50 (HOP-18) was > 100 µM (inactive), the GI50 (RPMI-8226) was > 100 µM (inactive) and the GI50 (SW-620) was > 100 µM (inactive). For the same molecule, the GI50 (SF-295) was > 100 µM (inactive), the GI50 (OVCAR-4) was > 100 µM (inactive) and the GI50 (U-251) was > 100 µM (inactive). The GI50 (SK-MEL-5) was > 100 µM (inactive), the GI50 (DMS-114) was > 100 µM (inactive) and the GI50 (XF498) was > 100 µM (inactive). The GI50 (HCC 2998) was > 100 µM (inactive), the GI50 (NCI-H23) was > 100 µM (inactive) and the GI50 (RXF 631) was > 100 µM (inactive). The GI50 (HT-29) was > 100 µM (inactive), the GI50 (KM12) was > 100 µM (inactive) and the GI50 (SK-MEL-2) was > 100 µM (inactive). The GI50 (ACHN) was > 100 µM (inactive), the GI50 (COLO 205) was > 100 µM (inactive) and the GI50 (SF-268) was > 100 µM (inactive). For the same molecule, the GI50 (CAKI-1) was > 100 µM (inactive), the GI50 (LOX IMVI) was > 100 µM (inactive) and the GI50 (DMS-273) was > 100 µM (inactive). The GI50 (HCT-116) was > 100 µM (inactive), the GI50 (NCI-H226) was > 100 µM (inactive) and the GI50 (NCI-H460) was > 100 µM (inactive). The GI50 (SNB-78) was > 100 µM (inactive), the GI50 (K562) was > 100 µM (inactive) and the GI50 (UACC-62) was > 100 µM (inactive). For the same molecule, the GI50 (EKVX) was > 100 µM (inactive), the GI50 (A498) was > 100 µM (inactive) and the GI50 (NCI-H522) was > 100 µM (inactive). The GI50 (HOP-62) was > 100 µM (inactive), the GI50 (A549) was > 100 µM (inactive) and the GI50 (DLD-1) was > 100 µM (inactive). For the same molecule, the GI50 (OVCAR-5) was > 100 µM (inactive), the GI50 (SK-OV-3) was > 100 µM (inactive) and the GI50 (RXF 393) was > 100 µM (inactive). For the same molecule, the GI50 (UACC-257) was > 100 µM (inactive).
With `NNC(=S)N/N=C(\CC1OC(=O)c2ccccc21)c1ccccc1O` (stereo unspecified) the GI50 (UO-31) was 37.7 µM (inactive), the GI50 (SN12C) was 46.8 µM (inactive) and the GI50 (SF-539) was 19.5 µM (inactive). The GI50 (Malme-3M) was 30.4 µM (inactive), the GI50 (LXFL 529) was 53.1 µM (inactive) and the GI50 (TK-10) was > 100 µM (inactive). For the same molecule, the GI50 (SK-MEL-28) was 57.1 µM (inactive), the GI50 (M19-MEL) was 20.7 µM (inactive) and the GI50 (HOP-92) was 70.8 µM (inactive). The GI50 (IGROV-1) was 38 µM (inactive), the GI50 (HCT-15) was 55.8 µM and the GI50 (OVCAR-8) was 30.8 µM (inactive). For the same molecule, the GI50 (OVCAR-3) was 37.5 µM (inactive), the GI50 (KM-20L2) was 92.5 µM (inactive) and the GI50 (SR) was 16.3 µM (inactive). The GI50 (MOLT-4) was 23 µM (inactive), the GI50 (SNB-19) was 32.4 µM (inactive) and the GI50 (CCRF-CEM) was 25.9 µM (inactive). The GI50 (HL-60) was 24.4 µM (inactive), the GI50 (SNB-75) was 42.6 µM (inactive) and the GI50 (M14) was 61.9 µM (inactive). For the same molecule, the GI50 (HOP-18) was 94.4 µM (inactive), the GI50 (SW-620) was 55.7 µM (inactive) and the GI50 (SF-295) was 20.3 µM (inactive). For the same molecule, the GI50 (OVCAR-4) was 88.7 µM (inactive), the GI50 (U-251) was 17.3 µM (inactive) and the GI50 (SK-MEL-5) was 42.3 µM (inactive). For the same molecule, the GI50 (DMS-114) was 58.1 µM (inactive), the GI50 (XF498) was 34.2 µM (inactive) and the GI50 (HCC 2998) was 32.7 µM (inactive). For the same molecule, the GI50 (NCI-H23) was 49.9 µM (inactive), the GI50 (RXF 631) was 26.5 µM (inactive) and the GI50 (HT-29) was 61.5 µM (inactive). The GI50 (KM12) was 40.4 µM (inactive), the GI50 (SK-MEL-2) was 26.8 µM (inactive) and the GI50 (ACHN) was 59.3 µM (inactive). The GI50 (COLO 205) was 47 µM (inactive), the GI50 (SF-268) was 50 µM (inactive) and the GI50 (CAKI-1) was 71.8 µM (inactive). The GI50 (LOX IMVI) was 17.6 µM (inactive), the GI50 (DMS-273) was 50.9 µM (inactive) and the GI50 (HCT-116) was 36.6 µM (inactive). The GI50 (NCI-H226) was 33.6 µM (inactive), the GI50 (NCI-H460) was 40.8 µM (inactive) and the GI50 (SNB-78) was 33 µM (inactive). For the same molecule, the GI50 (K562) was 60.5 µM (inactive), the GI50 (UACC-62) was 35.5 µM (inactive) and the GI50 (EKVX) was 78.7 µM (inactive). For the same molecule, the GI50 (786-0) was 43.3 µM (inactive), the GI50 (A498) was 33.7 µM (inactive) and the GI50 (NCI-H522) was 22.8 µM (inactive). The GI50 (HOP-62) was 33 µM (inactive), the GI50 (A549) was 64.3 µM (inactive) and the GI50 (DLD-1) was 44.6 µM (inactive). For the same molecule, the GI50 (OVCAR-5) was 18.2 µM (inactive), the GI50 (SK-OV-3) was > 100 µM (inactive) and the GI50 (RXF 393) was 36.4 µM (inactive). For the same molecule, the GI50 (UACC-257) was > 100 µM (inactive).
